Results as given in patent US20070049564A1 (Wyeth, priority 2005, published 2007).
Converted amounts (≈) assume the structure as drawn. Where two headings read alike, the source gives them in different places.

What was measured:
P. aeruginosa GC 2214 = assay: MIC, broth microdilution; conditions: Pseudomonas aeruginosa
E. coli GC 2270 = assay: MIC, broth microdilution; conditions: Escherichia coli
S. aureus GC 4536 = assay: MIC, broth microdilution; conditions: Staphylococcus aureus
E. coli GC 2232 = assay: MIC, broth microdilution; conditions: Escherichia coli
S. aureus GC 6335 = assay: MIC, broth microdilution; conditions: Staphylococcus aureus
E. coli GC 1073 = assay: MIC, broth microdilution; conditions: Escherichia coli
S. pyogenes GC 4563 = assay: MIC, broth microdilution; conditions: Streptococcus pyogenes
Description: Antimicrobial susceptibility testing. The in vitro activities of the antibiotics are determined by the broth microdilution method as recommended by the National Committee for Clinical Laboratory Standards (NCCLS) (1). Mueller-Hinton II broth (MHBII)(BBL Cockeysville, Md.) is the medium employed in the testing procedures. Microtiter plates containing serial dilutions of each antimicrobial agent are inoculated with each organism to yield the appropriate density (10^5 CFU/ml) in a 100 μl final volume. The plates are incubated for 18-22 hours at 35° C. in ambient air. […] Standard Pharmacological Test Procedures
Presented in Tables I-XIII are representative compounds of Formula I which were evaluated against a panel of 40 selected gram-positive and gram-negative bacteria strains by pre-incubation in water, mouse serum or human serum. Representative compounds were first incubated in mouse serum for an hour prior to the in vitro testing against a panel of selected gram-positive and gram-negative bacteria strains. All compounds were also pre-incubated in water for an hour prior to testing as control. Representative compounds of Formula I were incubated in human serum prior to MIC determination.

S. agalactiae GC 4564 = assay: MIC, broth microdilution; conditions: Streptococcus agalactiae
E. faecalis GC 2265 = assay: MIC, broth microdilution; conditions: Enterococcus faecalis
E. coli GC 2271 = assay: MIC, broth microdilution; conditions: Escherichia coli
E. coli GC 4559 = assay: MIC, broth microdilution; conditions: Escherichia coli
E. coli = assay: Range of MIC for E. coli strains; conditions: Escherichia coli, 20 h, read-out: Range of MIC, E. coli (Mouse Serum)
Description: (§1) Antimicrobial susceptibility testing. The in vitro activities of the antibiotics are determined by the broth microdilution method as recommended by the National Committee for Clinical Laboratory Standards (NCCLS) (1). Mueller-Hinton II broth (MHBII)(BBL Cockeysville, Md.) is the medium employed in the testing procedures. Microtiter plates containing serial dilutions of each antimicrobial agent are inoculated with each organism to yield the appropriate density (10^5 CFU/ml) in a 100 μl final volume. The plates are incubated for 18-22 hours at 35° C. in ambient air.
(§2) Representative compounds were first incubated in mouse serum for an hour prior to the in vitro testing against a panel of selected gram-positive and gram-negative bacteria strains. All compounds were also pre-incubated in water for an hour prior to testing as control. Representative compounds of Formula I were incubated in human serum prior to MIC determination.

c. albicans GC 3066 = assay: MIC, broth microdilution
E. faecium GC 2243 = assay: MIC, broth microdilution; conditions: Enterococcus faecium
E. faecalis GC 2242 = assay: MIC, broth microdilution; conditions: Enterococcus faecalis
S. aureus GC 6469 = assay: MIC, broth microdilution; conditions: Staphylococcus aureus
S. pneumoniae+ GC 4465 = assay: MIC, broth microdilution; conditions: Streptococcus pneumoniae
S. aureus GC 2216 = assay: MIC, broth microdilution; conditions: Staphylococcus aureus
Staph. aureus Smith = assay: In vivo activity (oral, iv; ED50) against Staph. aureus Smith in mice
Description: Representative examples of compounds of Formula I were tested for the oral efficacy using S. aureus Smith in mice.

E. coli GC 3226 = assay: MIC, broth microdilution; conditions: Escherichia coli
Description: as §1, §2

## CCCCCCC(=O)OCOC(=O)N(CC(=O)Nc1cc(N(C)C)c2c(c1O)C(=O)C1=C(O)[C@]3(O)C(=O)C(C(N)=O)=C(O)[C@@H](N(C)C)[C@@H]3C[C@@H]1C2)C(C)(C)C [Example 48, ({[(2-{[(5aR,6aS,7S,10aS)-9-(aminocarbonyl)-4,7-bis(dimethylamino)-1,8,10a,11-tetrahydroxy-10,12-dioxo-5,5a,6,6a,7,10,10a,12-octahydrotetracen-2-yl]amino}-2-oxoethyl)(tert-butyl)amino]carbonyl}oxy)methyl heptanoate]
P. aeruginosa GC 2214; GC2214, read-out: MINIMAL INHIBITORY CONCENTRATION MIC, Human Serum
  MIC: > 64 µg/mL
P. aeruginosa GC 2214; GC2214, read-out: MINIMAL INHIBITORY CONCENTRATION MIC, Mouse Serum
  MIC: 16 µg/mL (≈ 20.7 µM)
P. aeruginosa GC 2214; GC2214, read-out: MINIMAL INHIBITORY CONCENTRATION MIC, Water
  MIC: > 64 µg/mL
E. coli GC 2270; GC2270, read-out: MINIMAL INHIBITORY CONCENTRATION MIC, Human Serum
  MIC: 16 µg/mL (≈ 20.7 µM)
E. coli GC 2270; GC2270, read-out: MINIMAL INHIBITORY CONCENTRATION MIC, Mouse Serum
  MIC: 0.5 µg/mL (≈ 0.648 µM)
E. coli GC 2270; GC2270, read-out: MINIMAL INHIBITORY CONCENTRATION MIC, Water
  MIC: 64 µg/mL (≈ 82.9 µM)
S. aureus GC 4536; GC4536, read-out: MINIMAL INHIBITORY CONCENTRATION MIC, Human Serum
  MIC: 0.25 µg/mL (≈ 0.324 µM)
S. aureus GC 4536; GC4536, read-out: MINIMAL INHIBITORY CONCENTRATION MIC, Mouse Serum
  MIC: 0.25 µg/mL (≈ 0.324 µM)
S. aureus GC 4536; GC4536, read-out: MINIMAL INHIBITORY CONCENTRATION MIC, Water
  MIC: 0.25 µg/mL (≈ 0.324 µM)
E. coli GC 2232; GC2232, read-out: MINIMAL INHIBITORY CONCENTRATION MIC, Human Serum
  MIC: 16 µg/mL (≈ 20.7 µM)
E. coli GC 2232; GC2232, read-out: MINIMAL INHIBITORY CONCENTRATION MIC, Mouse Serum
  MIC: 0.25 µg/mL (≈ 0.324 µM)
E. coli GC 2232; GC2232, read-out: MINIMAL INHIBITORY CONCENTRATION MIC, Water
  MIC: 64 µg/mL (≈ 82.9 µM)
S. aureus GC 6335; GC6335, read-out: MINIMAL INHIBITORY CONCENTRATION MIC, Human Serum
  MIC: 2 µg/mL (≈ 2.59 µM)
S. aureus GC 6335; GC6335, read-out: MINIMAL INHIBITORY CONCENTRATION MIC, Mouse Serum
  MIC: 2 µg/mL (≈ 2.59 µM)
S. aureus GC 6335; GC6335, read-out: MINIMAL INHIBITORY CONCENTRATION MIC, Water
  MIC: 2 µg/mL (≈ 2.59 µM)
E. coli GC 1073; GC1073, read-out: MINIMAL INHIBITORY CONCENTRATION MIC, Human Serum
  MIC: 32 µg/mL (≈ 41.5 µM)
E. coli GC 1073; GC1073, read-out: MINIMAL INHIBITORY CONCENTRATION MIC, Mouse Serum
  MIC: 0.5 µg/mL (≈ 0.648 µM)
E. coli GC 1073; GC1073, read-out: MINIMAL INHIBITORY CONCENTRATION MIC, Water
  MIC: 64 µg/mL (≈ 82.9 µM)
S. pyogenes GC 4563; GC4563, read-out: MINIMAL INHIBITORY CONCENTRATION MIC, Human Serum
  MIC: 0.12 µg/mL (≈ 0.155 µM)
S. pyogenes GC 4563; GC4563, read-out: MINIMAL INHIBITORY CONCENTRATION MIC, Mouse Serum
  MIC: 0.12 µg/mL (≈ 0.155 µM)
S. pyogenes GC 4563; GC4563, read-out: MINIMAL INHIBITORY CONCENTRATION MIC, Water
  MIC: 0.12 µg/mL (≈ 0.155 µM)
S. agalactiae GC 4564; GC4564, read-out: MINIMAL INHIBITORY CONCENTRATION MIC, Human Serum
  MIC: 0.12 µg/mL (≈ 0.155 µM)
S. agalactiae GC 4564; GC4564, read-out: MINIMAL INHIBITORY CONCENTRATION MIC, Mouse Serum
  MIC: 0.12 µg/mL (≈ 0.155 µM)
S. agalactiae GC 4564; GC4564, read-out: MINIMAL INHIBITORY CONCENTRATION MIC, Water
  MIC: 0.12 µg/mL (≈ 0.155 µM)
E. faecalis GC 2265; GC2265, read-out: MINIMAL INHIBITORY CONCENTRATION MIC, Human Serum
  MIC: 1 µg/mL (≈ 1.3 µM)
E. faecalis GC 2265; GC2265, read-out: MINIMAL INHIBITORY CONCENTRATION MIC, Mouse Serum
  MIC: 0.5 µg/mL (≈ 0.648 µM)
E. faecalis GC 2265; GC2265, read-out: MINIMAL INHIBITORY CONCENTRATION MIC, Water
  MIC: 2 µg/mL (≈ 2.59 µM)
E. coli GC 2271; GC2271, read-out: MINIMAL INHIBITORY CONCENTRATION MIC, Human Serum
  MIC: 8 µg/mL (≈ 10.4 µM)
E. coli GC 2271; GC2271, read-out: MINIMAL INHIBITORY CONCENTRATION MIC, Mouse Serum
  MIC: 0.25 µg/mL (≈ 0.324 µM)
E. coli GC 2271; GC2271, read-out: MINIMAL INHIBITORY CONCENTRATION MIC, Water
  MIC: 32 µg/mL (≈ 41.5 µM)
E. coli GC 4559; GC4559, read-out: MINIMAL INHIBITORY CONCENTRATION MIC, Human Serum
  MIC: 32 µg/mL (≈ 41.5 µM)
E. coli GC 4559; GC4559, read-out: MINIMAL INHIBITORY CONCENTRATION MIC, Mouse Serum
  MIC: 0.25 µg/mL (≈ 0.324 µM)
E. coli GC 4559; GC4559, read-out: MINIMAL INHIBITORY CONCENTRATION MIC, Water
  MIC: > 64 µg/mL
E. coli
  MIC: 0.25 to 2 µg/mL (≈ 0.324 to 2.59 µM)
c. albicans GC 3066; Candida albicans, GC3066, read-out: MINIMAL INHIBITORY CONCENTRATION MIC
  MIC: > 64 µg/mL
c. albicans GC 3066; Human Serum
  MINIMAL INHIBITORY CONCENTRATION MIC: >64 UG/ML
c. albicans GC 3066; Mouse Serum
  MINIMAL INHIBITORY CONCENTRATION MIC: >64 UG/ML
E. faecium GC 2243; GC2243, read-out: MINIMAL INHIBITORY CONCENTRATION MIC, Human Serum
  MIC: 0.25 µg/mL (≈ 0.324 µM)
E. faecium GC 2243; GC2243, read-out: MINIMAL INHIBITORY CONCENTRATION MIC, Mouse Serum
  MIC: 0.25 µg/mL (≈ 0.324 µM)
E. faecium GC 2243; GC2243, read-out: MINIMAL INHIBITORY CONCENTRATION MIC, Water
  MIC: 0.5 µg/mL (≈ 0.648 µM)
E. faecalis GC 2242; GC2242, read-out: MINIMAL INHIBITORY CONCENTRATION MIC, Human Serum
  MIC: 1 µg/mL (≈ 1.3 µM)
E. faecalis GC 2242; GC2242, read-out: MINIMAL INHIBITORY CONCENTRATION MIC, Mouse Serum
  MIC: 0.5 µg/mL (≈ 0.648 µM)
E. faecalis GC 2242; GC2242, read-out: MINIMAL INHIBITORY CONCENTRATION MIC, Water
  MIC: 1 µg/mL (≈ 1.3 µM)
S. aureus GC 6469; GC6469, read-out: MINIMAL INHIBITORY CONCENTRATION MIC, Human Serum
  MIC: 1 µg/mL (≈ 1.3 µM)
S. aureus GC 6469; GC6469, read-out: MINIMAL INHIBITORY CONCENTRATION MIC, Mouse Serum
  MIC: 0.5 µg/mL (≈ 0.648 µM)
S. aureus GC 6469; GC6469, read-out: MINIMAL INHIBITORY CONCENTRATION MIC, Water
  MIC: 1 µg/mL (≈ 1.3 µM)
S. pneumoniae+ GC 4465; read-out: MINIMAL INHIBITORY CONCENTRATION MIC, Human Serum
  MIC: 0.25 µg/mL (≈ 0.324 µM)
S. pneumoniae+ GC 4465; read-out: MINIMAL INHIBITORY CONCENTRATION MIC, Mouse Serum
  MIC: 0.25 µg/mL (≈ 0.324 µM)
S. pneumoniae+ GC 4465; read-out: MINIMAL INHIBITORY CONCENTRATION MIC, Water
  MIC: 0.25 µg/mL (≈ 0.324 µM)
S. aureus GC 2216; GC2216, read-out: MINIMAL INHIBITORY CONCENTRATION MIC, Human Serum
  MIC: 0.25 µg/mL (≈ 0.324 µM)
S. aureus GC 2216; GC2216, read-out: MINIMAL INHIBITORY CONCENTRATION MIC, Mouse Serum
  MIC: 0.25 µg/mL (≈ 0.324 µM)
S. aureus GC 2216; GC2216, read-out: MINIMAL INHIBITORY CONCENTRATION MIC, Water
  MIC: 0.5 µg/mL (≈ 0.648 µM)
Staph. aureus Smith; Staphylococcus aureus, in Mus musculus, iv, read-out: ED50 SIV (Staph aureus Smith)
  ED50: 1.1 mg/kg
Staph. aureus Smith; Staphylococcus aureus, in Mus musculus, po, read-out: ED50 SOD (Staph aureus Smith)
  ED50: 10.1 mg/kg
Staph. aureus Smith; Staphylococcus aureus, in Mus musculus, po, read-out: ED50 Staph Smith SOD
  ED50: 10.1 mg/kg
Staph. aureus Smith; iv, read-out: ED50 Staph Smith SIV
  ED50: 1.1 mg/kg
E. coli GC 3226; GC3226, read-out: MINIMAL INHIBITORY CONCENTRATION MIC, Human Serum
  MIC: 32 µg/mL (≈ 41.5 µM)
E. coli GC 3226; GC3226, read-out: MINIMAL INHIBITORY CONCENTRATION MIC, Mouse Serum
  MIC: 0.5 µg/mL (≈ 0.648 µM)
E. coli GC 3226; GC3226, read-out: MINIMAL INHIBITORY CONCENTRATION MIC, Water
  MIC: > 64 µg/mL
